Data on 20 molecules can be found in paper PMC6831664, “Synthesis of new isoquinoline-base-oxadiazole derivatives as potent inhibitors of thymidine phosphorylase and molecular docking study” (Scientific Reports, 2019).

In the experiment the target is thymidine phosphorylase (Escherichia coli, UniProt P07650). Briefly: In vitro thymidine phosphorylase inhibition (spectrophotometric, absorbance at 290 nm). Conditions: for IC50: read-out: IC50 value, thymidine phosphorylase inhibitory activity. The format is biochemical, human and E. coli. The protocol: The desired activity of thymidine phosphorylase under this protocol was carried out with slight modification in the method described by Krenitsky and Bush in 1979[46],[47]. Here, TP activity was determined through spectrophotometrically by absorbance at 290 nm. Although the whole reaction mixture of 200 µL have the limit of 145 µL of potassium phosphate buffer (pH 7.4, 50 mM), 30 µL of enzyme (human and E. coli) by concentration 0.05 and 0.002 U, distinectly, followed by incubation through 5 µL of test materials (0.075, 0.15, 0.3 and 0.5 mM) at 25 °C for 10 min in triplet reader. Subsequently, pre-read at 290 nm was taken to conclude the absorbance of concern substrate particles. The crave substrate “thyimidin” (20 µL, 1.5 mM), was then dissolved in the buffer (potassium phosphate), followed by instant addition to plate with constant read after every 10, 20 and 30 min in micro plate reader (spectra max, molecular devices, CA, USA). All the assay were implemented in triplicate under positive control of 7-Deazxanthine.
thymidine phosphorylase, sequence (P07650 whole entry): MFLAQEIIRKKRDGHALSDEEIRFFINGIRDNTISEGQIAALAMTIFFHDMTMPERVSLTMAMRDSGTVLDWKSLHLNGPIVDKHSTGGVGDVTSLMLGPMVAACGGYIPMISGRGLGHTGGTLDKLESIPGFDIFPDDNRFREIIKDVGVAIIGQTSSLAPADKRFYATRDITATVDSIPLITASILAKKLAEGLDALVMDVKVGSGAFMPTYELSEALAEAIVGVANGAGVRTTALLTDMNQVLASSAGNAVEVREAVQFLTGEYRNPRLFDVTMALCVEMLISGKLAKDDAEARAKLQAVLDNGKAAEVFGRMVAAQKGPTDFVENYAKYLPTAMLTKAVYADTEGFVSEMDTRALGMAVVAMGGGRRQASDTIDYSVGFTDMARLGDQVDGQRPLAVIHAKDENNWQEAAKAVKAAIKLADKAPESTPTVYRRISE

On to `O=C(NN=Cc1ccccc1[N+](=O)[O-])c1ccc(-c2nnc(-c3cc4ccccc4cn3)o2)cc1` [analogue 1, 4-(5-(isoquinolin-3-yl)-1,3,4-oxadiazol-2-yl)-N’-(2-nitrobenzylidene)benzohydrazide], for which the IC50 was determined as 6.3 ± 0.2 µM.

For the molecule `O=C(NN=Cc1c2ccccc2cc2ccccc12)c1ccc(-c2nnc(-c3cc4ccccc4cn3)o2)cc1` [analogue 2, N’-(anthracen-9-ylmethylene)-4-(5-(isoquinolin-3-yl)-1,3,4-oxadiazol-2-yl)benzohydrazide], the “inhibitory potential compared with the standard 7-Deazaxanthine (in words)” value is given as “good inhibitory activity” and the IC50 stood at 39.4 ± 0.9 µM.

Turning to `O=C(NN=Cc1ccc(Cl)cc1Cl)c1ccc(-c2nnc(-c3cc4ccccc4cn3)o2)cc1` [analogue 3, N’-(2,4-dichlorobenzylidene)-4-(5-(isoquinolin-3-yl)-1,3,4-oxadiazol-2-yl)benzohydrazide], the IC50 stood at 3.3 ± 0.1 µM.

For the molecule `O=C(NN=Cc1ccc(COc2ccccc2)cc1)c1ccc(-c2nnc(-c3cc4ccccc4cn3)o2)cc1` [analogue 4, 4-(5-(isoquinolin-3-yl)-1,3,4-oxadiazol-2-yl)-N’-(4-(phenoxymethyl)benzylidene)benzohydrazide], the IC50 turned out to be 28.3 ± 0.5 µM.

With `CC(=NNC(=O)c1ccc(-c2nnc(-c3cc4ccccc4cn3)o2)cc1)c1ccc([N+](=O)[O-])cc1` [analogue 5, 4-(5-(isoquinolin-3-yl)-1,3,4-oxadiazol-2-yl)-N’-(1-(4-nitrophenyl)ethylidene)benzohydrazide], the 50% inhibitory concentration (IC50) was 14.6 ± 0.4 µM.

As for `O=C(NN=Cc1ccc(Cl)cc1)c1ccc(-c2nnc(-c3cc4ccccc4cn3)o2)cc1` [analogue 6, N’-(4-chlorobenzylidene)-4-(5-(isoquinolin-3-yl)-1,3,4-oxadiazol-2-yl)benzohydrazide], the IC50 was found to be 16.4 ± 0.5 µM.

Turning to `COc1ccc(Br)cc1C=NNC(=O)c1ccc(-c2nnc(-c3cc4ccccc4cn3)o2)cc1` [analogue 7, N’-(5-bromo-2-methoxybenzylidene)-4-(5-(isoquinolin-3-yl)-1,3,4-oxadiazol-2-yl)benzohydrazide], the IC50 was found to be 36.7 ± 0.9 µM.

As to `CN(C)c1ccc(C=NNC(=O)c2ccc(-c3nnc(-c4cc5ccccc5cn4)o3)cc2)cc1` [analogue 8, N’-(4-(dimethylamino)benzylidene)-4-(5-(isoquinolin-3-yl)-1,3,4-oxadiazol-2-yl)benzohydrazide], the IC50 turned out to be 18.8 ± 0.5 µM.

Take `O=C(NN=Cc1cc(Cl)cc(Cl)c1O)c1ccc(-c2nnc(-c3cc4ccccc4cn3)o2)cc1` [analogue 9, N’-(3,5-dichloro-2-hydroxybenzylidene)-4-(5-(isoquinolin-3-yl)-1,3,4-oxadiazol-2-yl)benzohydrazide]: the IC50 is 2.4 ± 0.1 µM.

Consider `Nc1cccc(C=NNC(=O)c2ccc(-c3nnc(-c4cc5ccccc5cn4)o3)cc2)c1` [analogue 10, N’-(3-aminobenzylidene)-4-(5-(isoquinolin-3-yl)-1,3,4-oxadiazol-2-yl)benzohydrazide], for which the IC50 was determined as 1.1 ± 0.1 µM.

For the molecule `COc1cc(C=NNC(=O)c2ccc(-c3nnc(-c4cc5ccccc5cn4)o3)cc2)cc(OC)c1O` [analogue 11, N’-(4-hydroxy-3,5-dimethoxybenzylidene)-4-(5-(isoquinolin-3-yl)-1,3,4-oxadiazol-2-yl)benzohydrazide], the IC50 came to 5.3 ± 0.2 µM.

In the case of `COc1ccc(C=NNC(=O)c2ccc(-c3nnc(-c4cc5ccccc5cn4)o3)cc2)cc1O` [analogue 12, N’-(3-hydroxy-4-methoxybenzylidene)-4-(5-(isoquinolin-3-yl)-1,3,4-oxadiazol-2-yl)benzohydrazide], the IC50 came out at 4.6 ± 0.1 µM.

`COc1cc(C=NNC(=O)c2ccc(-c3nnc(-c4cc5ccccc5cn4)o3)cc2)ccc1O` [analogue 13, N’-(4-hydroxy-3-methoxybenzylidene)-4-(5-(isoquinolin-3-yl)-1,3,4-oxadiazol-2-yl)benzohydrazide]: the IC50 amounted to 6 ± 0.2 µM.

Turning to `N#Cc1cccc(C=NNC(=O)c2ccc(-c3nnc(-c4cc5ccccc5cn4)o3)cc2)c1` [analogue 14, N’-(3-cyanobenzylidene)-4-(5-(isoquinolin-3-yl)-1,3,4-oxadiazol-2-yl)benzohydrazide], the IC50 is 27.4 ± 0.7 µM.

`COc1cc(C=NNC(=O)c2ccc(-c3nnc(-c4cc5ccccc5cn4)o3)cc2)cc(OC)c1OC` [analogue 15, 4-(5-(isoquinolin-3-yl)-1,3,4-oxadiazol-2-yl)-N’-(3,4,5-trimethoxybenzylidene)benzohydrazide]: the “inhibitory potential compared with the standard 7-Deazaxanthine (in words)” value was “good inhibitory activity” and the IC50 was found to be 47.3 ± 1.2 µM.

On to `N#Cc1ccccc1C=NNC(=O)c1ccc(-c2nnc(-c3cc4ccccc4cn3)o2)cc1` [analogue 16, N’-(2-cyanobenzylidene)-4-(5-(isoquinolin-3-yl)-1,3,4-oxadiazol-2-yl)benzohydrazide], for which the IC50 amounted to 18.5 ± 0.5 µM.

As for `N#Cc1ccc(C=NNC(=O)c2ccc(-c3nnc(-c4cc5ccccc5cn4)o3)cc2)cc1` [analogue 17, N’-(4-cyanobenzylidene)-4-(5-(isoquinolin-3-yl)-1,3,4-oxadiazol-2-yl)benzohydrazide], the IC50 turned out to be 22.1 ± 0.5 µM.

On to `COc1cccc(C=NNC(=O)c2ccc(-c3nnc(-c4cc5ccccc5cn4)o3)cc2)c1O` [analogue 18, N’-(2-hydroxy-3-methoxybenzylidene)-4-(5-(isoquinolin-3-yl)-1,3,4-oxadiazol-2-yl)benzohydrazide], for which the IC50 is 7.3 ± 0.2 µM.

For `COc1ccc(C=NNC(=O)c2ccc(-c3nnc(-c4cc5ccccc5cn4)o3)cc2)c(OC)c1OC` [analogue 19, 4-(5-(isoquinolin-3-yl)-1,3,4-oxadiazol-2-yl)-N’-(2,3,4-trimethoxybenzylidene)benzohydrazide], the “inhibitory potential compared with the standard 7-Deazaxanthine (in words)” value is “good inhibitory activity” and the IC50 came to 54.6 ± 1.5 µM.

Take `O=C(NN=Cc1ccc(O)c(O)c1O)c1ccc(-c2nnc(-c3cc4ccccc4cn3)o2)cc1` [analogue 20, 4-(5-(isoquinolin-3-yl)-1,3,4-oxadiazol-2-yl)-N’-(2,3,4-trihydroxybenzylidene)benzohydrazide]: the IC50 worked out at 1.1 ± 0.05 µM.
